Data on two compounds can be found in patent publication US8496945B2, “Nanoparticle delivery systems for membrane-integrating peptides” (priority 2007, dated 2013).

For test [1], the system named is red cells. Description: Hemolysis assay. The format is cell-based, Human. The settings on record: 5×10^7 red cells, 37° C., 3 hours; read-out: IC50 (concentration that causes 50% hemolysis). As for the experimental part: Human umbilical cord blood was obtained from healthy donors after informed consent. The red cells were separated by centrifugation at 200 g for 10 min and resuspended in normal saline. Various concentrations of melittin or melittin-carrying nanoparticles were added to a fixed number of red cells (5×10^7 cells) and incubated at 37° C. for 3 hours. The release of hemoglobin was quantified by measuring the absorbance at 540 nm of the supernatant in a Microplate Reader (Model 550, BioRad) after centrifugation. The absorbance of the supernatant obtained by incubating the red cells in water under identical conditions was set to 100%.

The subject of test [2] is C-32 melanoma cells. Description: Cytochrome c release assay. The format is cell-based. As for the experimental part: Cytochrome c is a water-soluble 15 kDa protein residing in the mitochondrial intermembrane space and is released early during apoptosis. To determine if melittin-loaded nanodroplets trigger release of cytochrome c, C-32 melanoma cells were treated with varying concentrations of melittin-nanoparticles for 1 hour at 37° C. following which the mitochondria were isolated by using the Mitochondrial Isolation Kit (Pierce Biotechnology, Rockford, Ill.). The cytochrome c present in the mitochondrial and cytosol fractions thus obtained was assayed by using the cytochrome c ELISA kit (Invitrogen, Carlsbad, Calif.).

The subject of test [3] is C-32 melanoma cells. Kind of test: Cell proliferation inhibition (MTT) assay. The format is cell-based. Particulars: 3 hours treatment, then 72 hours. The method, then: The effect of αvβ3-targeted melittin-nanoparticles on C-32 cancer cell proliferation was determined by the 3-[4,5-dimethylthiazol-2-yl]2,5-diphenyltetrazolium bromide (MTT) assay. The assay measures the activity of a mitochondrial enzyme that converts MTT, a tetrazolium salt, into a formazan crystal that absorbs at 570 nm.
(§1) C-32 melanoma cells were seeded in 96-well plates at a seeding density of 5,000 cells/well. After overnight incubation at 37° C., the cells were treated with free melittin, αvβ3-targeted or nontargeted melittin nanoparticles at various concentrations. At the end of 3 hours of incubation at 37° C., the cells were washed three times with PBS and incubated at 37° C. for a period of 72 hours. Then the medium was aspirated, and the cells rinsed with phosphate buffered saline (PBS) and 20 μl MTT solution (Sigma-Aldrich, St. Louis, Mo., final concentration 5 mg/ml in PBS) was added to each well. Cells were further incubated at 37° C. for 30 min, solubilized in 200 μl DMSO to dissolve the precipitated formazan and the absorbance read on a microplate reader (Biorad, Model 550) at 570 nm. Background absorbencies were subtracted and untreated control cells were set at 100% viability.

In test [4] the test system is C-32 melanoma cells. Description: Lactate dehydrogenase release assay. It counts as cell-based. The settings on record: 1 hour at 37° C., 0.1% triton-X 100 = 100%. The method, then: Lactate dehydrogenase (LDH) is a stable enzyme that is rapidly released from the cells upon plasma membrane damage. The lactate dehydrogenase release assay kit was obtained from BioVision (Mountain View, Calif.) and the assay performed according to manufacturers instructions. Briefly, C-32 melanoma cells were either treated with free melittin or melittin-nanoparticles at various concentrations for 1 hour at 37° C. and the amount of lactate dehydrogenase released quantified. Cells treated with 0.1% triton-X 100 were taken as 100% release.

A short description of test [5]: Surface plasmon resonance kinetics of melittin insertion in lipid monolayers (Biacore L1 chip). It counts as binding. Particulars: melittin 15 to 1,000 nM. As for the experimental part: The kinetics of melittin insertion in lipid monolayers of perfluorocarbon nanoparticles was studied by surface plasmon resonance (SPR). SPR detects change in the reflective index of a surface. Biacore-X biosensor and carboxy methylated dextran chip L1 were obtained from Biacore, Inc (Piscataway, N.J.). All solutions were degassed and filtered through a 0.22 μm membrane as recommended. A uniform lipid monolayer on an L1 chip was created by injecting 35 μl PFOB nanoparticles (3 μl/min). Loosely deposited nanoparticles were removed by first increasing the flow rate to […] for 2 min followed by an injection of NaOH (50 μl, 10 mM) to ensure a stable baseline. Complete coverage was confirmed by injecting the negative control bovine serum albumin (25 μl, […] in PBS). Melittin in various concentrations was then injected at a flow rate of 30 μl/min (30 μl in PBS; 15 nM to 1000 nM) and the response recorded for 60 minutes. At the end of each experiment the chip was regenerated by two consecutive injections of 3-[(3-cholamidopropyl)dimethylammonio]-1-propanesulfonate (CHAPS) (50 μl, 100 μl/min). A series of sensorgrams was generated for the selected melittin concentrations. The data were analyzed globally by simultaneously fitting the peptide sensorgrams obtained at various concentrations using the BIAevaluation™ software (Biacore, Inc, Piscataway, N.J.). […]
For orientation: Surface plasmon resonance follows binding to a sensor surface in real time, without labels.

Test [6] has as its system cholesterol-depleted C-32 Melanoma cells. Description: Effect of cholesterol depletion on cell death (MTT assay). The format is cell-based. The settings on record: 0.25 mM and 0.5 mM, no melittin. The method, then: as §1
The role of cholesterol in modulating the melittin activity on the cell membrane was assessed by depleting cells of cholesterol before the cell proliferation assay and flow cytometry (as described above). […] To quantify the amount of cholesterol depleted by methyl beta cyclodextrin, total lipids were extracted from melanoma cells by standard procedure. […] The total cholesterol content in the cells was determined by using the Amplex® Red Cholesterol Assay kit (Sigma, St. Louis, Mo.). […]
In general terms: Tetrazolium assays rely on reduction of a dye to a coloured formazan, in cell work by metabolically active cells.

For test [7], the system named is C-32 melanoma cells. Kind of test: Cholesterol depletion, Amplex Red Cholesterol Assay. The format is cell-based. Particulars: 15 min at 37° C. As for the experimental part:
The role of cholesterol in modulating the melittin activity on the cell membrane was assessed by depleting cells of cholesterol before the cell proliferation assay and flow cytometry (as described above). C-32 Melanoma cells were treated with either 0.25 mM or 0.5 mM methyl beta cyclodextrin (Sigma, St. Louis, Mo.) for 15 min at 37° C. to deplete cholesterol. To quantify the amount of cholesterol depleted by methyl beta cyclodextrin, total lipids were extracted from melanoma cells by standard procedure. Briefly, 10^6 C-32 melanoma cells grown in 6-well tissue culture plates were scraped by a rubber policeman and the pellet obtained post-centrifugation was treated with 200 μl chloroform-methanol (2:1). After spinning top speed in a microcentrifuge, the organic phase was collected and vacuum dried. The dried lipids were then dissolved in 20 μl of 2-propanol containing 10% triton-X 100 as assay samples. The total cholesterol content in the cells was determined by using the Amplex® Red Cholesterol Assay kit (Sigma, St. Louis, Mo.). Cholesterol standard was used for calibration as per manufacturer's recommendations.

Several values for one entry are separate records, joined by “and”; a condition that tells them apart may be missing. Equal values may be shown once.

As to `CC[C@H](C)[C@H](NC(=O)CN)C(=O)NCC(=O)N[C@@H](C)C(=O)N[C@H](C(=O)N[C@@H](CC(C)C)C(=O)N[C@@H](CCCCN)C(=O)N[C@H](C(=O)N[C@@H](CC(C)C)C(=O)N[C@H](C(=O)N[C@H](C(=O)NCC(=O)N[C@@H](CC(C)C)C(=O)N1CCC[C@H]1C(=O)N[C@@H](C)C(=O)N[C@@H](CC(C)C)C(=O)N[C@H](C(=O)N[C@@H](CO)C(=O)N[C@@H](Cc1c[nH]c2ccccc12)C(=O)N[C@H](C(=O)N[C@@H](CCCCN)C(=O)N[C@@H](CCCNC(=N)N)C(=O)N[C@@H](CCCCN)C(=O)N[C@@H](CCCNC(=N)N)C(=O)N[C@@H](CCC(N)=O)C(=O)N[C@@H](CCC(N)=O)C(N)=O)[C@@H](C)CC)[C@@H](C)CC)[C@@H](C)O)[C@@H](C)O)C(C)C)C(C)C` [free melittin, melittin], the IC50 in test [1] was found to be 510 ± 120 nM; in test [3], 930 ± 80 nM. Also, the “release of cytochrome c from the mitochondria” value in test [2] (1 hour at 37° C., varying concentrations) was “dose-dependent release”. In addition, the cytochrome c release in test [2] (at the higher concentrations) came out at 55.48±6.1%. The LDH release in test [4] (1 μM) is 19.17 (±4.2) percent; in test [4] (5 μM) it was 68.14 (±7.1) percent and 68.14±4.3%. Moreover, the “association rate constant (ka)” value in test [5] is reported as 4.5±0.35×10^6 (Ms)^−1.

As for methyl beta cyclodextrin, the cell proliferation entry in test [6] was “no change in cell proliferation”. The depletion of cholesterol in test [7] (0.25 mM) is 7%; in test [7] (0.5 mM) it was 12%.
